{"source": "patent US20110118337A1", "about": "“Method of Using Compositions Comprising MIR-192 and/or MIR-215 for the Treatment of Cancer” (Merck Sharp & Dohme Corp., priority 2008, published 2011)", "tested_on": "HCT116 DICER^ex5 cells", "assay": "Gene expression profiling (Agilent 44K microarray) after transfection of miR-192/miR-215 duplex mimetics", "format": "cell-based, human", "conditions": "10 nM, vs mock-transfected", "protocol": "Synthetic duplex mimetics of miR-192 and miR-215 (sequences shown in TABLE 1) or a control target Luciferase siRNA (Luc), shown in TABLE 1, were transfected (10 nM final concentration) into HCT116 DICER^ex5, a human colorectal cancer cell line with hypomorphic DICER function (Cummins, J. M., et al., PNAS 103:3687-3692 (2006)). The transfections were carried out using Lipofectamine RNAiMax (Invitrogen) per the manufacturer's instructions. At 10 and 24 hours post-transfection, total RNA was extracted and gene expression profiling was carried out with the Agilent 44K microarray in comparison to RNA isolated from mock-transfected HCT116DICER^ex5 cells. Microarray analysis was carried out as described in Linsley, P. S., et al., Mol Cell Biol 27:2240-2252 (2007). Gene expression data analysis was done either with the Rosetta Resolver gene expression analysis software (Version 7.1 Rosetta Biosoftware)."}
{"substance": "miR-192: Synthetic duplex mimetic of miR-192, guide CUGACCUAUGAAUUGACAGCC (SEQ ID NO:1), passenger SEQ ID NO:7 (sense CUGUCAAUUCAUCGGUCUGAU; listed as RNA, chemistry not given here; listed as Homo sapiens)", "values": [{"measurement": "BCL2 transcript fold change", "setting": "10 hr", "value": "−1.1", "unit": "fold change"}, {"measurement": "BRCA1 transcript fold change", "setting": "10 hr", "value": "−1.02", "unit": "fold change"}, {"measurement": "CDC7 transcript fold change", "setting": "10 hr", "value": "−1.63", "unit": "fold change"}, {"measurement": "CDC14A transcript fold change", "setting": "10 hr", "value": "−1.02", "unit": "fold change"}, {"measurement": "CDC73 transcript fold change", "setting": "10 hr", "value": "−1.2", "unit": "fold change"}, {"measurement": "CRK transcript fold change", "setting": "10 hr", "value": "−1.42", "unit": "fold change"}, {"measurement": "CTCF transcript fold change", "setting": "10 hr", "value": "−1.59", "unit": "fold change"}, {"measurement": "CUL5 transcript fold change", "setting": "10 hr", "value": "−1.16", "unit": "fold change"}, {"measurement": "DBF4B transcript fold change", "setting": "10 hr", "value": "−1.12", "unit": "fold change"}, {"measurement": "DEK transcript fold change", "setting": "10 hr", "value": "−1.21", "unit": "fold change"}, {"measurement": "DLG5 transcript fold change", "setting": "10 hr", "value": "−1.99", "unit": "fold change"}, {"measurement": "DTL transcript fold change", "setting": "10 hr", "value": "−1.11", "unit": "fold change"}, {"measurement": "EMP1 transcript fold change", "setting": "10 hr", "value": "−1.28", "unit": "fold change"}, {"measurement": "ERCC3 transcript fold change", "setting": "10 hr", "value": "−1.3", "unit": "fold change"}, {"measurement": "EXTL2 transcript fold change", "setting": "10 hr", "value": "−1.2", "unit": "fold change"}, {"measurement": "FGF2 transcript fold change", "setting": "10 hr", "value": "−1.48", "unit": "fold change"}, {"measurement": "HOXA10 transcript fold change", "setting": "10 hr", "value": "−1.7", "unit": "fold change"}, {"measurement": "HRH1 transcript fold change", "setting": "10 hr", "value": "−1.36", "unit": "fold change"}, {"measurement": "KIF14 transcript fold change", "setting": "10 hr", "value": "−1.03", "unit": "fold change"}, {"measurement": "KIF23 transcript fold change", "setting": "10 hr", "value": "−1.01", "unit": "fold change"}, {"measurement": "LMNB2 transcript fold change", "setting": "10 hr", "value": "−1.38", "unit": "fold change"}, {"measurement": "MACF1 transcript fold change", "setting": "10 hr", "value": "−1.3", "unit": "fold change"}, {"measurement": "MAD2L transcript fold change", "setting": "10 hr", "value": "−1.18", "unit": "fold change"}, {"measurement": "MCM3 transcript fold change", "setting": "10 hr", "value": "−1.51", "unit": "fold change"}, {"measurement": "MCM6 transcript fold change", "setting": "10 hr", "value": "−1.01", "unit": "fold change"}, {"measurement": "MCM10 transcript fold change", "setting": "10 hr", "value": "−1.77", "unit": "fold change"}, {"measurement": "MIS12 transcript fold change", "setting": "10 hr", "value": "−1.25", "unit": "fold change"}, {"measurement": "MKI67 transcript fold change", "setting": "10 hr", "value": "−1.08", "unit": "fold change"}, {"measurement": "MPHOSPH1 transcript fold change", "setting": "10 hr", "value": "−1.32", "unit": "fold change"}, {"measurement": "MTSS1 transcript fold change", "setting": "10 hr", "value": "−1.06", "unit": "fold change"}, {"measurement": "NBN transcript fold change", "setting": "10 hr", "value": "−1.49", "unit": "fold change"}, {"measurement": "NCAPH transcript fold change", "setting": "10 hr", "value": 1.01, "unit": "fold change"}, {"measurement": "NEK1 transcript fold change", "setting": "10 hr", "value": "−1.12", "unit": "fold change"}, {"measurement": "NFIB transcript fold change", "setting": "10 hr", "value": "−1.47", "unit": "fold change"}, {"measurement": "NFYA transcript fold change", "setting": "10 hr", "value": "−1.22", "unit": "fold change"}, {"measurement": "NIN transcript fold change", "setting": "10 hr", "value": "−1.1", "unit": "fold change"}, {"measurement": "PAFAH1B1 transcript fold change", "setting": "10 hr", "value": "−1.83", "unit": "fold change"}, {"measurement": "PAPD5 transcript fold change", "setting": "10 hr", "value": "−1.32", "unit": "fold change"}, {"measurement": "PFTK1 transcript fold change", "setting": "10 hr", "value": 1.03, "unit": "fold change"}, {"measurement": "PIM1 transcript fold change", "setting": "10 hr", "value": "−1.2", "unit": "fold change"}, {"measurement": "PLAU transcript fold change", "setting": "10 hr", "value": "−1.74", "unit": "fold change"}, {"measurement": "PLS3 transcript fold change", "setting": "10 hr", "value": "−1.44", "unit": "fold change"}, {"measurement": "POLQ transcript fold change", "setting": "10 hr", "value": "−1.03", "unit": "fold change"}, {"measurement": "POLS transcript fold change", "setting": "10 hr", "value": "−1.23", "unit": "fold change"}, {"measurement": "PPP1CA transcript fold change", "setting": "10 hr", "value": "−1.83", "unit": "fold change"}, {"measurement": "PRPF38A transcript fold change", "setting": "10 hr", "value": "−1.11", "unit": "fold change"}, {"measurement": "RACGAP1 transcript fold change", "setting": "10 hr", "value": "−1.34", "unit": "fold change"}, {"measurement": "RAD1 transcript fold change", "setting": "10 hr", "value": "−1.2", "unit": "fold change"}, {"measurement": "RAD51 transcript fold change", "setting": "10 hr", "value": 1.08, "unit": "fold change"}, {"measurement": "RAP1GAP transcript fold change", "setting": "10 hr", "value": "−1.11", "unit": "fold change"}, {"measurement": "RB1 transcript fold change", "setting": "10 hr", "value": "−1.21", "unit": "fold change"}, {"measurement": "SEPT10 transcript fold change", "setting": "10 hr", "value": "−1.59", "unit": "fold change"}, {"measurement": "SERTAD2 transcript fold change", "setting": "10 hr", "value": "−1.12", "unit": "fold change"}, {"measurement": "SH3BP4 transcript fold change", "setting": "10 hr", "value": "−1.52", "unit": "fold change"}, {"measurement": "SMARCB1 transcript fold change", "setting": "10 hr", "value": "−1.16", "unit": "fold change"}, {"measurement": "TDG transcript fold change", "setting": "10 hr", "value": "−1.47", "unit": "fold change"}, {"measurement": "TDP1 transcript fold change", "setting": "10 hr", "value": "−1.44", "unit": "fold change"}, {"measurement": "TOP1 transcript fold change", "setting": "10 hr", "value": "−1.52", "unit": "fold change"}, {"measurement": "TUBGCP3 transcript fold change", "setting": "10 hr", "value": "−1.26", "unit": "fold change"}, {"measurement": "USP1 transcript fold change", "setting": "10 hr", "value": "−1.13", "unit": "fold change"}, {"measurement": "UVRAG transcript fold change", "setting": "10 hr", "value": "−1.2", "unit": "fold change"}, {"measurement": "BCL2 transcript fold change", "setting": "24 hr", "value": "−1.46", "unit": "fold change"}, {"measurement": "BRCA1 transcript fold change", "setting": "24 hr", "value": "−1.35", "unit": "fold change"}, {"measurement": "CDC7 transcript fold change", "setting": "24 hr", "value": "−2.05", "unit": "fold change"}, {"measurement": "CDC14A transcript fold change", "setting": "24 hr", "value": "−1.16", "unit": "fold change"}]}
